{"source": "patent US20250275976A1", "about": "“Methods of Treating Neuroinflammatory Conditions” (Athira Pharma, Inc., priority 2022, published 2025)", "key": {"[1]": {"test_system": "BV2 microglia", "experiment": "Nitrite production in LPS-stimulated BV2 microglia (Griess Reagent System)", "format": "cell-based", "set-up": "key to Inflammatory Readout: Nitrite (significance of reduction): “NS” indicates a non-significant reduction NO production; “++” indicates a p value < 0.005 in Dunnett's multiple comparison; “+++” indicates a p value < 0.0005 in Dunnett's multiple comparison", "settings": "for Inflammatory Readout: Nitrite (significance of reduction): LPS pre-treatment 45 minutes, compound 23.5 hours", "from_the_text": "Microglia are the resident immune cells of the brain and, when activated by pathological conditions, promote broad-spectrum neuroinflammation. When activated by toxic exogenous substances, microglia produce excessive reactive oxygen species (ROS), nitric oxide (NO), and proinflammatory cytokines, which further propagates disease pathogenesis. BV2 microglia were used as an in-vitro cell model to evaluate mechanisms relevant to inflammation in the CNS. Upon activation of TLR4 with LPS, microglia are activated and trigger excessive oxidative stress, a process that is partially mediated by AKT phosphorylation (pAKT) and activation. Microglia activation also leads to a range of changes in gene expression.\nCompound A19 active metabolite (Compound A19-AM) was investigated for whether it could reduce the inflammatory effect of LPS in microglia. Inflammatory activation of BV2 microglia cells was stimulated by pre-treatment with LPS for 45 minutes, followed by the addition of test compound for 1 hour (pAKT) or 23.5 hours (NO and gene expression panel). For pAKT measurement, cells were lysed and the pAKT measurement was conducted using the HTRF system. For NO production, culture supernatants were collected and assessed for the presence of nitrite, a primary metabolic product of nitric oxide.\nQuantification of nitrite production in cell culture supernatants was accomplished using the Griess Reagent System (Promega, G2930). Measurement of pAKT was assessed utilizing Phospho-AKT 1/2/3 (Ser473) […] Cellular Detection Kit (CisBio, 64AKSPEH).\nData analysis was performed via One-way ANOVA with Dunnett's multiple comparisons test compared to LPS-stimulated, vehicle treated cultures using Prism statistical software (GraphPad). Tabular data indicates significance of reduction in the indicated analyte at the indicated dose."}, "[2]": {"test_system": "dopaminergic (DA) neurons", "experiment": "TH+ neuron number and neurite network after MPP+, rotenone or 6-OHDA injury", "format": "cell-based, rat (Wistar)", "set-up": "key to Neurite Network (significance vs insult) / TH+ neuron number (significance vs insult): “NS” indicates that the comparison was not statistically significant; “+” indicates that p<0.05", "from_the_text": "A range of neurodegenerative disease states converge on neuroinflammatory dysfunction related to mitochondrial impairment and the generation of reactive oxygen species (ROS). Chemical disruption of mitochondrial function by treatment of neuron cultures with 1-methyl-4-phenylpyridium (MPP+) or the pesticide rotenone can lead to activation of inflammatory signaling pathways and death via apoptotic and necrotic mechanisms. Similarly, intracellular oxidation of 6-hydroxydopamine (6-OHDA), which is readily absorbed by dopaminergic neurons in culture, leads to production of ROS within the cell, activation of inflammatory signaling, and cell death. In vitro exposure to these neurotoxins has been successfully used to model the effects of neurodegenerative inflammation and identify therapeutic agents that can protect neurons from these effects.\nMidbrain tissue obtained from 15-day old rat (Wistar) embryos was dissected and the ventral mesencephalic region, an area rich in dopaminergic (DA) neurons was removed and dissociated by trypsinization and mechanical passage. Cells were cultured in Neurobasal medium supplemented with B27 (2%), L-glutamine (2 mM), 2% of Penicillin-Streptomycin (PS) solution, 10 ng/mL of Brain-derived neurotrophic factor (BDNF) and 1 ng/mL of Glial-Derived Neurotrophic Factor (GDNF).\nViable cells were seeded at a density of 40,000 cells/well in 96-well plates and maintained at 37° C. in 5% CO2. […] Subsequently, chemical insults were added to the culture in separate plates as follows: 4 uM of MPP+ for 48 hours, 10 nM of rotenone for 24 hours, and 20 uM of 6-OHDA for 24 hours.\nFollowing incubation, cell culture supernatant was replaced by a fixative solution of 4% paraformaldehyde in PBS for 20 minutes and prepared for immunostaining. Fixed cultures were stained with a monoclonal anti-Tyrosine Hydroxylase (TH) antibody (1:10000 in PBS, 2 hrs, RT) followed by incubation with appropriate fluorescent secondary antibody and Hoechst dye. Automated fluorescent imaging, 20 images per well, was performed at 10× magnification. Computation image analysis was used to quantify the total number of TH+ neurons, and the total length of the neurite network. Statistical analysis using a one-way ANOVA followed by Fishers LSD test compared inflammatory insult cultures with and without test compound treatment."}, "[3]": {"settings": "6-OHDA injury (20 uM, 24 hrs), dose 0.01 nM"}, "[4]": {"settings": "6-OHDA injury (20 uM, 24 hrs), dose 0.1 nM"}, "[5]": {"settings": "6-OHDA injury (20 uM, 24 hrs), dose 1 nM"}, "[6]": {"settings": "6-OHDA injury (20 uM, 24 hrs), dose 10 nM"}, "[7]": {"settings": "6-OHDA injury (20 uM, 24 hrs), dose 100 nM"}, "[8]": {"settings": "6-OHDA injury (20 uM, 24 hrs), dose 1000 nM"}, "[9]": {"settings": "MPP+ injury (4 uM, 48 hrs), dose 0.01 nM"}, "[10]": {"settings": "MPP+ injury (4 uM, 48 hrs), dose 0.1 nM"}, "[11]": {"settings": "MPP+ injury (4 uM, 48 hrs), dose 1 nM"}, "[12]": {"settings": "MPP+ injury (4 uM, 48 hrs), dose 10 nM"}, "[13]": {"settings": "MPP+ injury (4 uM, 48 hrs), dose 100 nM"}, "[14]": {"settings": "MPP+ injury (4 uM, 48 hrs), dose 1000 nM"}, "[15]": {"settings": "Rotenone injury (10 nM, 24 hrs), dose 0.01 nM"}, "[16]": {"settings": "Rotenone injury (10 nM, 24 hrs), dose 0.1 nM"}, "[17]": {"settings": "Rotenone injury (10 nM, 24 hrs), dose 1 nM"}, "[18]": {"settings": "Rotenone injury (10 nM, 24 hrs), dose 10 nM"}, "[19]": {"settings": "Rotenone injury (10 nM, 24 hrs), dose 100 nM"}, "[20]": {"settings": "Rotenone injury (10 nM, 24 hrs), dose 1000 nM"}}, "note": "Square brackets hold non-standard residues; d marks the D form. Peptide text beside a SMILES is read from it. * marks the point of attachment. Hexanoyl = CCCCCC(=O)*; Ahx = NCCCCCC(=O)O", "data": [{"smiles": "CCCCCC(=O)N[C@@H](Cc1ccc(O)cc1)C(=O)N[C@H](C(=O)NCCCCCC(N)=O)[C@@H](C)CC", "note": "[Compound A19 active metabolite, dihexa] (Hexanoyl-Tyr-Ile-[Ahx]-NH2)", "values": [{"measurement": "Production of nitrite (result in words)", "setting": "[1]; LPS-stimulated BV2", "result": "significantly reduced"}, {"measurement": "Inflammatory Readout: Nitrite (significance of reduction)", "setting": "[1]; dose 0.01 nM", "result": "++ (“++” indicates a p value < 0.005 in Dunnett's multiple comparison)"}, {"measurement": "Inflammatory Readout: Nitrite (significance of reduction)", "setting": "[1]; dose 1 nM", "result": "+++ (“+++” indicates a p value < 0.0005 in Dunnett's multiple comparison)"}, {"measurement": "Inflammatory Readout: Nitrite (significance of reduction)", "setting": "[1]; dose 10 nM", "result": "NS"}, {"measurement": "Neurite Network (significance vs insult)", "setting": "[2]; [3]", "result": "NS"}, {"measurement": "TH+ neuron number (significance vs insult)", "setting": "[2]; [3]", "result": "NS"}, {"measurement": "Neurite Network (significance vs insult)", "setting": "[2]; [4]", "result": "NS"}, {"measurement": "TH+ neuron number (significance vs insult)", "setting": "[2]; [4]", "result": "NS"}, {"measurement": "Neurite Network (significance vs insult)", "setting": "[2]; [5]", "result": "NS"}, {"measurement": "TH+ neuron number (significance vs insult)", "setting": "[2]; [5]", "result": "+ (“+” indicates that p<0.05)"}, {"measurement": "Neurite Network (significance vs insult)", "setting": "[2]; [6]", "result": "+ (“+” indicates that p<0.05)"}, {"measurement": "TH+ neuron number (significance vs insult)", "setting": "[2]; [6]", "result": "+ (“+” indicates that p<0.05)"}, {"measurement": "Neurite Network (significance vs insult)", "setting": "[2]; [7]", "result": "+ (“+” indicates that p<0.05)"}, {"measurement": "TH+ neuron number (significance vs insult)", "setting": "[2]; [7]", "result": "+ (“+” indicates that p<0.05)"}, {"measurement": "Neurite Network (significance vs insult)", "setting": "[2]; [8]", "result": "+ (“+” indicates that p<0.05)"}, {"measurement": "TH+ neuron number (significance vs insult)", "setting": "[2]; [8]", "result": "+ (“+” indicates that p<0.05)"}, {"measurement": "Neurite Network (significance vs insult)", "setting": "[2]; [9]", "result": "NS"}, {"measurement": "TH+ neuron number (significance vs insult)", "setting": "[2]; [9]", "result": "NS"}, {"measurement": "Neurite Network (significance vs insult)", "setting": "[2]; [10]", "result": "NS"}, {"measurement": "TH+ neuron number (significance vs insult)", "setting": "[2]; [10]", "result": "NS"}, {"measurement": "Neurite Network (significance vs insult)", "setting": "[2]; [11]", "result": "NS"}, {"measurement": "TH+ neuron number (significance vs insult)", "setting": "[2]; [11]", "result": "+ (“+” indicates that p<0.05)"}, {"measurement": "Neurite Network (significance vs insult)", "setting": "[2]; [12]", "result": "NS"}, {"measurement": "TH+ neuron number (significance vs insult)", "setting": "[2]; [12]", "result": "+ (“+” indicates that p<0.05)"}, {"measurement": "Neurite Network (significance vs insult)", "setting": "[2]; [13]", "result": "+ (“+” indicates that p<0.05)"}, {"measurement": "TH+ neuron number (significance vs insult)", "setting": "[2]; [13]", "result": "+ (“+” indicates that p<0.05)"}, {"measurement": "Neurite Network (significance vs insult)", "setting": "[2]; [14]", "result": "+ (“+” indicates that p<0.05)"}, {"measurement": "TH+ neuron number (significance vs insult)", "setting": "[2]; [14]", "result": "+ (“+” indicates that p<0.05)"}, {"measurement": "Neurotoxic impact of inflammatory-relevant chemical insults (result in words)", "setting": "[2]; MPP+, rotenone, 6-OHDA", "result": "reduces the neurotoxic impact of inflammatory-relevant chemical insults"}, {"measurement": "Neurite Network (significance vs insult)", "setting": "[2]; [15]", "result": "NS"}, {"measurement": "TH+ neuron number (significance vs insult)", "setting": "[2]; [15]", "result": "NS"}, {"measurement": "Neurite Network (significance vs insult)", "setting": "[2]; [16]", "result": "NS"}, {"measurement": "TH+ neuron number (significance vs insult)", "setting": "[2]; [16]", "result": "NS"}, {"measurement": "Neurite Network (significance vs insult)", "setting": "[2]; [17]", "result": "NS"}, {"measurement": "TH+ neuron number (significance vs insult)", "setting": "[2]; [17]", "result": "NS"}, {"measurement": "Neurite Network (significance vs insult)", "setting": "[2]; [18]", "result": "NS"}, {"measurement": "TH+ neuron number (significance vs insult)", "setting": "[2]; [18]", "result": "+ (“+” indicates that p<0.05)"}, {"measurement": "Neurite Network (significance vs insult)", "setting": "[2]; [19]", "result": "+ (“+” indicates that p<0.05)"}, {"measurement": "TH+ neuron number (significance vs insult)", "setting": "[2]; [19]", "result": "+ (“+” indicates that p<0.05)"}, {"measurement": "Neurite Network (significance vs insult)", "setting": "[2]; [20]", "result": "+ (“+” indicates that p<0.05)"}, {"measurement": "TH+ neuron number (significance vs insult)", "setting": "[2]; [20]", "result": "+ (“+” indicates that p<0.05)"}]}]}
